Measurements as given in patent EP1350523B1 (priority 1992, dated 1994).

Tested on: vascular smooth muscle cells
Experiment: 24 hour 3H-thymidine DNA synthesis inhibition assay compared with 24 hour 3H-leucine protein inhibition assay
Format: cell-based
Conditions: for therapeutic range (area under the curve of 3H-leucine assay greater than that of 3H-thymidine assay): 24 hour exposure, 5% FBS; for protein synthesis inhibition and cytotoxicity at concentrations where significant DNA synthesis inhibition occurs: Example 8, Figs. 10A-10C
Protocol: The ability of various therapeutic agents to inhibit DNA synthesis and protein synthesis in vascular smooth muscle cells was tested. ^3H-leucine and ^3H-thymidine uptake and cytotoxicity assays were conducted in accordance with the following protocols.
3H-leucine uptake: Vascular smooth muscle cells at 40,000 cells/ml were seeded in sterile 24 well plates at 1ml/well. The plates were incubated overnight at 37°C, 5% CO2, 95% air in a humidified atmosphere (saturation). Log dilutions of the therapeutic agent of interest were incubated with the vascular smooth muscle cells for 5 minutes or 24 hours. Samples of the therapeutic agents were diluted in DMEM: F-12 media (Whittaker Bioproducts, Walkersville, Maryland) with 5% fetal bovine serum (GBS. Gibco) and 5% Serum Plus® (JRH Biologicals). Following therapeutic agent incubation, the solution was aspirated, and 1ml/well of 0.5 microcurie/ml ^3H-leucine in leucine free DMEM (Dulbecco's Modified Eagle's Medium) with 5% Serum Plus® was added. The plates were re-incubated overnight at 37°C, 5% CO2 in a humidified atmosphere. The cells were visually graded using an inverted microscope using a scoring scale to determine viability and cell number. The 1 to 3 grade is based upon percent of cell viability and number compared to control wells, with 3=100%, 2=70%-100% and 1=0%-70%. A record of this scoring assisted in determining the immediate cytotoxic effect of the therapeutic agents. The media was then aspirated, and the cells were washed twice with cold 5% TCA. 400 microliters of 0.2M NaOH was added per well, and the plates were incubated for two hours at room temperature on a rotating platform. 200 microliters per well of the cell solution was transferred into plastic scintillation vials (Bio-Rad Laboratories), and 4 milliliters of Bio-Safe® II liquid scintillation fluid was added prior to vortexing. Vials were counted on a Beckman LS2800 Liquid Scintillation Counter interfaced with Beckman "Data Capture" software for conversion to a Lotus 1-2-3® file and analysis using Lotus 1-2-3®.
^3H-thymidine uptake: Vascular smooth muscle cells were incubated in complete media with 5% FBS (Gibco) overnight at 37°C in a humidified, 5% CO2 environment in sterile 24 well plates. The media was aspirated from the wells and serum free media supplemented with growth factors (DMEM: F-12 basal media supplemented with growth factor cocktail catalog number I1884 which contains insulin (5 micrograms/ml), transferrin (5 micrograms/ml) and sodium selenite (5 nanograms/ml) available from Sigma Chemical, St. Louis, Missouri) was added. Cells were incubated in this media for 24 hours. For a 5 minute therapeutic agent exposure, log dilutions of the therapeutic agent were incubated with the cells in complete media. After 5 minutes and media aspiration, 1 ml/well of 1.0 microcurie/ml ^3H-thymidine dispersed in complete media was added. The 24 hour exposure involved incubation of the cells with 1 ml/well of 1.0 microcurie/ml of ^3H-thymidine dispersed in complete media and log dilutions of the therapeutic agent being tested. In both exposure trials, the cells were then incubated overnight at 37°C in a humidified, 5% CO2 environment. The cells were visually scored for viability and cell number. […] Vials were counted on a Beckman LS2800 Liquid Scintillation Counter interfaced with Beckman "Data Capture" software for conversion to a Lotus 1-2-3° file and analysis using Lotus 1-2-30®.

| Structure (SMILES) | therapeutic range (area under the curve of 3H-leucine assay greater than that of 3H-thymidine assay) | protein synthesis inhibition and cytotoxicity at concentrations where significant DNA synthesis inhibition occurs |
| --- | --- | --- |
| O=[N+]([O-])OCC(CO[N+](=O)[O-])O[N+](=O)[O-] [nitroglycerin] | showed an available therapeutic range | minimal protein synthesis inhibition and cytotoxicity |
| Cc1ccc(C(=O)Nc2ccc(S(=O)(=O)O)c3cc(S(=O)(=O)O)cc(S(=O)(=O)O)c23)cc1NC(=O)c1cccc(NC(=O)Nc2cccc(C(=O)Nc3cc(C(=O)Nc4ccc(S(=O)(=O)O)c5cc(S(=O)(=O)O)cc(S(=O)(=O)O)c45)ccc3C)c2)c1 [suramin] | showed an available therapeutic range | minimal protein synthesis inhibition and cytotoxicity |
| CN[C@@H]1C[C@H]2O[C@@](C)([C@@H]1OC)n1c3ccccc3c3c4c(c5c6ccccc6n2c5c31)C(=O)NC4 [staurosporin] | showed an available therapeutic range |  |
